Data reported in publication doi:10.1101/2025.09.20.677545v1, “Parallel Evolution of a Drimenol Biosynthetic Gene Cluster Unique to Marine Bacteria” (biorxiv, 2025).

How the values were obtained:
Format in all cases: biochemical
Sc terpene synthase β = biological target: T1, Sc terpene synthase β (Sorangium cellulosum, UniProt Z9XJ57G830); experiment: GC-MS of product after alkaline phosphatase (BAP) treatment; settings: […] FPP, […] enzyme, […] Tris-HCl pH […] MgCl2 (Mg2+ not required), […] °C; cyclization to a diphosphate, product seen only after BAP
T1 construct: codon-optimized, N-terminal His8 tag kept, pET28b(+), E. coli BL21 Star (DE3), TALON; single β domain with DxDVT134-138 motif
T1 sequence (Z9XJ57G830 1-342): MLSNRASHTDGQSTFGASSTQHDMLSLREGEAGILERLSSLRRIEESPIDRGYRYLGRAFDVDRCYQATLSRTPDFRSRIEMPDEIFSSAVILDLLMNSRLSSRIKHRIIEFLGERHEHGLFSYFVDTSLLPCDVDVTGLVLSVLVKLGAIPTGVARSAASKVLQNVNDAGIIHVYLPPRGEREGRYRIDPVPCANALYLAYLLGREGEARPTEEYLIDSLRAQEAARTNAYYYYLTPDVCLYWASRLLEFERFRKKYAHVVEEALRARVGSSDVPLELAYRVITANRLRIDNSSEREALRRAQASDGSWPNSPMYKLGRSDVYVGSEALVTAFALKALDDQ

FeFPPS = biological target: T2, FeFPPS (Flavivirga eckloniae, UniProt A0A2K9PVX7); experiment: GC-MS of farnesol after alkaline phosphatase (BAP) treatment; settings: 100 μM GPP with 100 μM IPP; otherwise same
T2 construct: gene C1H87_21960; codon-optimized, N-terminal His8 tag kept, pET28b(+), E. coli BL21 Star (DE3), TALON
T2 sequence (A0A2K9PVX7 1-289): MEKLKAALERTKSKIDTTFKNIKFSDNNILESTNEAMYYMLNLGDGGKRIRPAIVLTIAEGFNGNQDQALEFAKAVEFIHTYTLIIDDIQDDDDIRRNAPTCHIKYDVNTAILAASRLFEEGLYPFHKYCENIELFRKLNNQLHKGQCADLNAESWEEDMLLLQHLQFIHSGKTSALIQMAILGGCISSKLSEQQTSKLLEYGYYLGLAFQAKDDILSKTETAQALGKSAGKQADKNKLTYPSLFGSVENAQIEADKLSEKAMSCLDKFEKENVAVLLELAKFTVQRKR

AsFPPS = biological target: T3, AsFPPS (Aquimarina spongiae, UniProt A0A1M6CXH4); experiment: as above; settings: 100 μM GPP with 100 μM IPP; otherwise same
T3 construct: gene SAMN04488508_102321; codon-optimized, N-terminal His8 tag kept, pET28b(+), E. coli BL21 Star (DE3), TALON
T3 sequence (A0A1M6CXH4 1-289): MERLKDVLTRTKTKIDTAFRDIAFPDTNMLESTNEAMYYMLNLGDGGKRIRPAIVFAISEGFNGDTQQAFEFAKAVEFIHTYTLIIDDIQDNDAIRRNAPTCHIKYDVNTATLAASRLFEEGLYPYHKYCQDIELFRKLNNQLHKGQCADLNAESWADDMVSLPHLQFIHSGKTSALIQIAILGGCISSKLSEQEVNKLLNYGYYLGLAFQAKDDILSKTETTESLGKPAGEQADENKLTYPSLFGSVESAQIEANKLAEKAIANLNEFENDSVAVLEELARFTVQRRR

Structure (SMILES)	GC-MS of product after alkaline phosphatase (BAP) treatment (Sc terpene synthase β)	GC-MS of farnesol after alkaline phosphatase (BAP) treatment (FeFPPS)	GC-MS of farnesol after alkaline phosphatase (BAP) treatment (AsFPPS)
CC(C)=CCC/C(C)=C/CC/C(C)=C/COP(=O)(O)OP(=O)(O)O [farnesyl pyrophosphate]	Sc terpene synthase β is monofunctional and performs only the cyclization step of FPP		
CC(C)=CCC/C(C)=C/COP(=O)(O)OP(=O)(O)O [geranyl pyrophosphate]		dimethylallyl pyrophosphate (DMAPP) or geranyl pyrophosphate (GPP) as an allylic substrate	dimethylallyl pyrophosphate (DMAPP) or geranyl pyrophosphate (GPP) as an allylic substrate
